Reference: the supplement of paper PMC4862054
Several values for one entry are separate records, joined by “and”; a condition that tells them apart may be missing. Equal values may be shown once.

Key:
[1] = tested on: MDA-MB-468; conditions: 72 h
Method in brief: (§1)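 In this assay, breast cancer cell lines spent 72 h with compound at 5 concentrations in 10-fold steps over a compound-specific 10,000-fold range. The first readout was cell death by CellTox Green fluorescence, and the second was viability by CellTiter-Glo luminescence, each normalised per plate to 0.1 % DMSO and a positive kill control. EC50 came from the dose-response curves, censored at the top concentration.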

[2] = tested on: HDQ-P1; conditions: 72 h
Method in brief: as §1

[3] = tested on: BT-474; conditions: 72 h
Method in brief: as §1

[4] = tested on: MDA-MB-436; assay: drug sensitivity score (DSS), CellTiter-Blue viability (DSS (AUC-based score)); higher = stronger viability inhibition; extreme values may be limits of the assay; conditions: incubation time: 72 h
Protocol: (§2)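 DSRT with the CellTiter-Blue (resazurin reduction) viability readout, fluorescence 560/590 nm, 72 h incubation. Plates were normalised to DMSO and benzethonium chloride controls. DSS is computed from the area under the fitted dose-response curve (5 or 9 concentrations).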

[5] = tested on: CAL-148; assay: as above; conditions: incubation time: 72 h
Protocol: as §2

[6] = tested on: CAL-51; assay: as above; conditions: incubation time: 72 h
Protocol: as §2

[7] = tested on: BT-549; assay: as above; conditions: incubation time: 72 h
Protocol: as §2

[8] = tested on: SK-BR-3; assay: as above; conditions: incubation time: 72 h
Protocol: as §2

[9] = tested on: MDA-MB-231; assay: as above; conditions: incubation time: 72 h
Protocol: as §2

[10] = tested on: BT-474; assay: as above; conditions: incubation time: 72 h
Protocol: as §2

[11] = tested on: DU-4475; assay: as above; conditions: incubation time: 72 h
Protocol: as §2

EC50, CellTiter-Glo [1]	EC50, CellTiter-Glo [3]	Compound	EC50, CellTiter-Glo [2]	drug sensitivity score [4]	drug sensitivity score [5]	drug sensitivity score [6]	drug sensitivity score [7]	drug sensitivity score [8]	drug sensitivity score [9]	drug sensitivity score [10]	drug sensitivity score [11]
396 nM	2290 nM	Cn1cc(C2=Nc3cc(NC(=O)C(N)C4CCCCC4)cc4c3C2=CNNC4=O)cn1 (configuration not stated)	9680 nM								
2800 nM	573 nM	COc1cc2c(cc1O)CC[C@@H]1[C@@H]2CC[C@]2(C)[C@@H](O)CC[C@@H]12 [2-methoxyestradiol]	7460 nM	7.65	0	5.78	10.5	2.73	11.2	6.94	6.57
	> 10000 nM	O=C1CN2Cc3c(ccc(Cl)c3Cl)N=C2N1 [Anagrelide]		0	0	4.77	0	0	0	0	0
815 nM		CC(=O)N(O)CCCCCNC(=O)CCC(=O)N(O)CCCCCNC(=O)CCC(=O)N(O)CCCCCN [Deferoxamine]	1850 nM								
> 10000 nM		CC1(C)CNc2cc(NC(=O)c3cccnc3NCc3ccncc3)ccc21 [Motesanib]		0	0	0	0	0	0	0	0
181 nM	352 nM	CC(=O)c1c(C)c2cnc(Nc3ccc(N4CCNCC4)cn3)nc2n(C2CCCC2)c1=O [Palbociclib]									
2240 nM	644 nM	COc1cc(F)c(F)c(Nc2ccc(I)cc2F)c1NS(=O)(=O)C1(C[C@H](O)CO)CC1 [Refametinib]	119 nM								
36 nM	112 nM	CC(C)(C)c1cnc(CSc2cnc(NC(=O)C3CCNCC3)s2)o1 [SNS-032]	50 nM	15	19.6	13.8	17.6	22	21.1	15.2	20.1

Further lines, the molecule ahead of its results:

Compound	EC50, CellTiter-Glo [1]	EC50, CellTiter-Glo [3]	EC50, CellTiter-Glo [2]	drug sensitivity score [4]	drug sensitivity score [5]	drug sensitivity score [6]	drug sensitivity score [7]	drug sensitivity score [8]	drug sensitivity score [9]	drug sensitivity score [10]	drug sensitivity score [11]
Cc1sc2c(c1C)C(c1ccc(Cl)cc1)=N[C@@H](CC(=O)OC(C)(C)C)c1nnc(C)n1-2 [(+)JQ1]	487 nM	113 nM	129 nM	0	9.78	3.04	10.7	8.66	12.9	0	17.1
CC1(C)CCC(CN2CCN(c3ccc(C(=O)NS(=O)(=O)c4ccc(NCC5CCOCC5)c([N+](=O)[O-])c4)c(Oc4cnc5[nH]ccc5c4)c3)CC2)=C(c2ccc(Cl)cc2)C1 [ABT-199]	> 10000 nM										
Nc1ncn([C@@H]2O[C@H](CO)[C@@H](O)[C@H]2O)c(=O)n1 [Azacitidine]	574 nM	2290 nM	2470 nM	3.01	0	0	3.42	0	0	0	0
CC(=O)O[C@@]12CO[C@@H]1C[C@H](O)[C@@]1(C)C(=O)[C@H](O)C3=C(C)[C@@H](OC(=O)[C@H](O)[C@@H](NC(=O)OC(C)(C)C)c4ccccc4)C[C@@](O)([C@@H](OC(=O)c4ccccc4)[C@H]21)C3(C)C [Docetaxel]	0.68 nM	7.47 nM	2.08 nM	18.7 and 19.2	26.1 and 28.4	22.4 and 25.2	27.3 and 29.3	28.9 and 29.4	24.4 and 25.8	21.1 and 19.5	26.1 and 28.1
C[C@]1(O)C[C@@H](c2nc(-c3ccc4ccc(-c5ccccc5)nc4c3)c3c(N)nccn32)C1 [Linsitinib]	4140 nM	1090 nM	1010 nM								
Cc1ccc([N+](=O)[O-])cc1S(=O)(=O)N(C)/N=C/c1cnc2ccc(Br)cn12 [PIK-75]	27.4 nM	26.1 nM	32.5 nM								
Cn1cnc2c(F)c(Nc3ccc(Br)cc3Cl)c(C(=O)NOCCO)cc21 [Selumetinib]	5030 nM	361 nM	44.8 nM	0	0	0.877	0	0	13.7	0	25.4
Nc1nc2[nH]cnc2c(=S)[nH]1 [Thioguanine]	9670 nM	197 nM	2970 nM	4.56	2.39	0.794	0.924	0.902	8.63	0	0
